Like-named read-outs stand apart in the source and are kept apart here.
Key:
[1] = Water penetration scan by polarized optical microscopy (POM); assay type: physicochemical; details: for Appearance of the Lyotropic phase at excess water (25° C.-50° C.): POM, equilibration 1 h; for Lyotropic phase formed in water penetration scan: neat amphiphile to pure water gradient, temperature as worded
Procedure: Polarized Optical Microscopy (POM): Samples used for Polarized Optical Microscopy (POM) were prepared by placing a small amount of prodrug amphiphile on a microscope slide and covered with a cover slip. Water was placed on the edges of the cover slip and allowed to flow into the sample by capillary action. The microscope slide was placed in a Linkam PE94 hot stage (Linkam Scientific Instruments Ltd. Surrey, England) and heated at 3° C./min between room temperature and 50° C. […] Images were captured with a Nikon DS-Ri-1 camera. All images were taken at 100× magnification.
(§1) The results of the water penetration scans and SAXS are summarised in Tables 1 and 2 and indicate that various self-assembled lyotropic liquid crystalline phases were formed for the different Gem apmphiphiles, with a broad range of mesophases from lamellar crystalline structure to lamellar liquid crystalline, cubic mesophases and sponge mesophases.
The textures obtained from water penetration scans along the established concentration gradient from neat amphiphile to pure water provide a quick insight into the lyotropic phase behaviour of a surfactant/water system. Melted neat amphiphile was placed on a microscopic slide and water was then introduced around the edge.

[2] = SAXS phase behaviour of hydrated Gem amphiphiles; assay type: physicochemical; details: equilibration 48 h
Procedure: SAXS analyses of the bulk and lyotropic phases of the amphiphiles were performed on a Bruker NanoSTAR laboratory SAXS instrument (Brucker AXS, Kalsruhe, Germany).
The equilibrated lyotropic phases were placed into a demountable button sample cells. For the analysis of the dispersions, a multi-capillary holder was used. Button cells and capillary holder interchangeably fit into a block setup that was temperature-controlled with a Peltier heater-cooler system. 2D scattering images were radially averaged to conventional 1 D scattering plots and as a function of the q value (Å-1) where q is the length of the scattering vector which was calculated using the formula q=(4π/λ)sin(θ/2), where A is the wavelength and 6 is the scattering angle.
The mesophases formed were determined by indexing peaks using the reflection laws as described by De Campo et al., Langmuir, 2004. 20(13), 5254-5261. Small angle X-ray scattering patterns of emulsions and liposomes display large broad peaks while liquid crystalline phases of highly ordered nanostructured particles such as cubosomes and hexosomes display distinct sharp peaks. The relative positions of the peaks (“spacing”) allows for the elucidation of the symmetry of the structure. The interplanar distance (d) between two reflecting planes may be calculated using the formula d=(2π)/q, where q is the absolute position of the peak. This, in turn allows for the calculation of the lattice parameter (a), the size of the unit cell, to be calculated.
as §1

CACO2 cell line = assay: MTS cytotoxicity assay, 72 hours; assay type: cell-based; details: prodrugs as nanoparticle dispersions
Procedure: (§2) The cytotoxicity of gemcitabine nanoparticles dispersion made from gemcitabine amphiphiles in the presence or absence of DMPC-cholesterol was evaluated in comparison to gemcitabine alone in several pancreatic cell lines including CF Pac-1, BxPC3, Panc-1 and MIA PaCa-2, MCF7and CACO2 cell lines. The cell lines were exposed to media with varying concentrations of the treatments (100-0.001 μM) and incubated for 72 hours. Cell viability was determined using the MTS assay and was conducted in triplicate to derive the IC50 values.

CFPAC-1 cell line [3] = assay: MTS cytotoxicity assay, 72 hours; assay type: cell-based; details: CFPAC-1, 72 hours, prodrugs as nanoparticle dispersions
Procedure: as §2

MCF7 cell line = assay: MTS cytotoxicity assay, 72 hours; assay type: cell-based; details: MCF7, 72 hours, prodrugs as nanoparticle dispersions
Procedure: as §2

[4] = system: Carboxylesterase from porcine liver; assay: In-situ enzymatic bioconversion of prodrug nanoparticles (LC/MS); assay type: in vitro ADME; details: DMPC/cholesterol nanoparticles, 50 uM prodrug, 33.7 units/mL, 37° C.; for Bioconversion to Gemcitabine: FIG. 7b
Procedure: Nanoparticle dispersions of a mixture of Dimyristoylphosphatidylcholine and cholesterol with either (i) Gemcitabine-Phytanyl, (ii) Gemcitabine-PEG3-oleoyl or (iii) Gemcitabine-PEG3-oleoylamide were made at […] concentration of Gemcitabine prodrugs. Carboxylesterase solution from porcine liver obtained from Sigma-Aldrich was added to the nanoparticle dispersions, and the enzyme concentration in each respective nanoparticle dispersion was set to 33.7 units/mL.
The time at which the enzyme solution was added was taken as time zero for the hydrolysis reaction. The mixture was maintained at 37° C. throughout the experiment. The concentration of the hydrolysis product was measured at various time intervals using LC/MS and LC/MS^2 for the detection of prodrug converted to the active drug Gemcitabine. The time at which the sample was injected into the LC column was taken to be the reaction time for such sample. The hydrolysis progress curve, showing the decrease in the concentration of original substrate was plotted against time, whereas the bioconversion to Gemcitabine was determined by MS^2 methods. Standard curves for both prodrugs and the active bioconverted gemcitabine was assessed by using standard samples.
Thermo Finnigan (Finnigan LCQ Series, Thermo Scientific, USA) LC/MS equipped with an electron spray ionization (ESI) was used to assess the enzymatic reaction using both MS and MS^2 mode. The prodrug depletion was detected by negative ion for MS. The conversion of the prodrug to the Gemcitabine was detected by MS^2 at 112.1. 10 μl of sample withdrawn from the reaction solution was injected directly into a Phenomenex C8 150 mm×2 mm 5 uLuna column (Phenomenex, Australia). A 100% Methanol solution was used as mobile phase with the flow rate of 0.5 ml/min. The sample after the column separation was eluted to ESI source. The capillary temperature and ion spray voltage were set at 350° C. and 4.60 respectively. The sample temperature was well maintained at 37° C. during the entire measurement by incubating the samples in the temperature controlled auto-sampler. Data were acquired and processed with Xcalibur Quan chromatography software.
The decreased prodrug was calculated as the percentage of the area under the peak of Gemcitabine-prodrug compared to that before addition of the enzyme. The amount of Gemcitabine produced, was calculated from the area under the peak at 3.4 min related to Gemcitabine at 263 and its MS^2 at 112.1.

BxPC3 cell line = assay: MTS cytotoxicity assay, 72 hours; assay type: cell-based; details: Homo sapiens, BXPC-3, BxPC3, 72 hours
Procedure: as §2

MIAPaCa-2 cell line = assay: MTS cytotoxicity assay, 72 hours; assay type: cell-based; details: Homo sapiens, MIA PaCa-2, MIAPaCa-2, 72 hours
Procedure: as §2

PANC-1 cell line = assay: MTS cytotoxicity assay, 72 hours; assay type: cell-based; details: Homo sapiens, PANC-1, 72 hours
Procedure: as §2

[5] = system: CFPAC-1 cell line-derived xenograft; assay: In vivo tumour inhibition, CFPAC-1 xenograft; parameters: species or system mice
Procedure: All treatments were administered via IV injection twice a week for four weeks. The amount of gemcitabine administered in the Gem nanoparticles was 4.45 mg/kg, which is an order of magnitude less than the ordinary dose used in clinic. The doses were equimolar with the gemcitabine control group in order to allow for a direct comparison of the anti-tumour efficacy between groups. The amount of total lipid injected was 1 mg/dose. Gemcitabine is administered intravenously at a dose of 1000 mg/m2 to treat pancreatic cancer in humans. The dose administered here is equivalent to 13.35 mg/m2 of gemcitabine being injected into humans; 1.33% of the clinical dose of gemcitabine in humans. In other studies, the amount of gemcitabine injected into mice in vivo studies has ranged from 7-100 mg/kg.
At the end of the study, the tumours were harvested.

CFPAC-1 cell line [6] = details: 72 hours; read-out: IC50 of gemcitabine against the CFPAC-1 cell line; cited from earlier work

SMILES	Appearance of the Lyotropic phase at excess water (25° C.-50° C.) [1]	Lyotropic phase lattice parameter ([2]; 25° C.) [Å]	Lyotropic phase lattice parameter ([2]; 37° C.) [Å]	Lyotropic phase ([2]; 25° C.)	Lyotropic phase ([2]; 37° C.)	Prodrug reduction (hydrolysis) by CES enzyme [4]	other results
CCCCC/C=C\C/C=C\CCCCCCCCOC(=O)Nc1ccn([C@@H]2O[C@H](CO)[C@@H](O)C2(F)F)c(=O)n1 (relative stereo) [Gem-Lin, 2′-deoxy-2′,2′-difluoro-N4-(((cis-9,12,octadecadienenyl)oxy)carbonyl) cytidine]	A birefringent band (LC)	53.2 ± 0.5	53.2 ± 0.5				
CCCCCCCC/C=C\CCCCCCCCOC(=O)Nc1ccn([C@@H]2O[C@H](CO)[C@@H](O)C2(F)F)c(=O)n1 (relative stereo) [Gem-Ole, 2′-deoxy-2′,2′-difluoro-N4-(((cis-9, octadecenyl)oxy)carbonyl) cytidine]	Anisotropic band						Lyotropic phase formed in water penetration scan [1]: traditional lamellar (La) phase at room temperature and 3D cubic (Pn3m) phase at elevated temperatures above 33 °C
CCCCC/C=C\C/C=C\CCCCCCCC(=O)OCCOCCOCCOC(=O)Nc1ccn([C@@H]2O[C@H](CO)[C@@H](O)C2(F)F)c(=O)n1 (relative stereo) [Gem-PEG3-linoleoyl, 2′-deoxy-2′,2′-difluoro-N4-((((cis-9, cis-12-octadecadienoyl)-oxy-triethyleneglycol)oxy)carbonyl) cytidine]	An isotropic band, emulsion			Sponge phase (L3)	Sponge phase (L3)		IC50 (CACO2 cell line; CACO2, 72 hours): 200 nM; IC50 (CFPAC-1 cell line [3]): 583 nM; IC50 (MCF7 cell line): 100 nM
CCCCCCCC/C=C\CCCCCCCC(=O)OCCOCCOCCOC(=O)Nc1ccn([C@@H]2O[C@H](CO)[C@@H](O)C2(F)F)c(=O)n1 (relative stereo) [Gem-PEG3-oleoyl, 2′-deoxy-2′,2′-difluoro-N4-((((cis-9, octadecenoyl)oxy-triethyleneglycol)oxy)carbonyl) cytidine]	Birefringent ( lamellar)	55.26 ± 0.5	55.26 ± 0.5			reduced to Gem-PEG3 and the oleic acid quickly	Bioconversion to Gemcitabine [4]: bioconverted Gemcitabine very slowly
Nc1ccn([C@@H]2O[C@H](CO)[C@@H](O)C2(F)F)c(=O)n1 [Gemcitabine, 2′,2′-difluoro-2′-deoxycytidine]							IC50 (BxPC3 cell line): 22.5 nM; IC50 (CACO2 cell line; Homo sapiens, Caco-2, CACO2, 72 hours): 50 nM; IC50 (CFPAC-1 cell line [3]; Homo sapiens): 65 nM; IC50 (MCF7 cell line; Homo sapiens): 6 nM; IC50 (MIAPaCa-2 cell line): 23 nM; IC50 (PANC-1 cell line): > 100000 nM; Tumour size trend over time ([5]; 4.45 mg/kg gemcitabine equimolar, IV twice a week for four weeks): increased in size, however at a slower rate compared with the control PBS group; Tumour volume as % of control tumour size ([5]; 4.45 mg/kg gemcitabine equimolar, IV twice a week for four weeks, 34 days): 54%; Average ex-vivo tumour weight, order of groups ([5]; end of study, control vs nanoparticles p<0.05): control group>Gemcitabine group>Gemcitabine nanoparticles; IC50 (CFPAC-1 cell line [6]): 6.1 to 33 nM

More lines, main results first:

Appearance of the Lyotropic phase at excess water (25° C.-50° C.) [1]	Lyotropic phase lattice parameter ([2]; 25° C.) [Å]	Lyotropic phase lattice parameter ([2]; 37° C.) [Å]	Lyotropic phase ([2]; 25° C.)	Lyotropic phase ([2]; 37° C.)	Prodrug reduction (hydrolysis) by CES enzyme [4]	SMILES	other results
					reduced at a lower rate	CCCCCCCC/C=C\CCCCCCCC(=O)NCCOCCOCCOC(=O)Nc1ccn([C@@H]2O[C@H](CO)[C@@H](O)C2(F)F)c(=O)n1 (relative stereo) [Gem-PEG3-oleoylamide, 2′-deoxy-2′,2′-difluoro-N4-((((cis-9, octadecenoyl)amino-triethyleneglycol)oxy)carbonyl) cytidine]	Time of prodrug reduction ([4]; FIG. 7a): 6 h; Bioconversion to Gemcitabine [4]: produced Gemcitabine sustainably
Emulsion			Sponge phase (L3)			CC/C=C\C/C=C\C/C=C\CCCCCCCC(=O)OCCOCCOCCOCCOCCOCCOC(=O)Nc1ccn([C@@H]2O[C@H](CO)[C@@H](O)C2(F)F)c(=O)n1 (relative stereo) [Gem-PEG6-linolenoyl, 2′-deoxy-2′,2′-difluoro-N4-((((cis-9, 12, 15 octadecatrienoyl)-oxy-hexaethyleneglycol)oxy)carbonyl) cytidine]	
An isotropic band, cubic phase	125.2 ± 0.5	124.4 ± 0.5	Ia3d	Ia3d		CCCCCCCC/C=C\CCCCCCCC(=O)OCCOCCOCCOCCOCCOCCOC(=O)Nc1ccn([C@@H]2O[C@H](CO)[C@@H](O)C2(F)F)c(=O)n1 (relative stereo) [Gem-PEG6-oleoyl, 2′-deoxy-2′,2′-difluoro-N4-((((cis-9, octadecenoyl)-oxy-hexaethyleneglycol)oxy)carbonyl) cytidine]	
An isotropic band	135.8 ± 0.5	135.8 ± 0.5	Ia3d	Ia3d	slowest prodrug to reduce completely	CC(C)CCCC(C)CCCC(C)CCCC(C)CCOC(=O)Nc1ccn([C@@H]2O[C@H](CO)[C@@H](O)C2(F)F)c(=O)n1 (stereo partly shown) [Gem-Phy, 2′-deoxy-2′,2′-difluoro-N4-(((3,7,11,15-tetramethyl-hexadecyl)oxy)carbonyl) cytidine]	Lyotropic phase formed in water penetration scan [1]: 3D inversed bicontinous cubic phase (Pn3m space group) initially and then transform to 2D hexagonal phase

— patent US12503483B2, “Gemcitabine amphiphile prodrugs” (NANOMED HOLDINGS PTY LTD, priority 2018, dated 2025)
